For experiment [1], the target named is T1, butyrylcholinesterase (BChE) (EC 3.1.1.8) (Homo sapiens, UniProt P06276).
T1 construct: purchased Sigma-Aldrich Pte Ltd (Nucleos, Singapore)
Nature of the experiment: BChE inhibition assay (modified Ellman's method). Format: biochemical. Conditions: average of 3 replicates ± SD; substrate butyrylthiocholine, pH 8.0. How it is done:
(§1) Male Swiss mice (age, 8 weeks; weight, 25–27 g) were purchased from Military Medical University (Hanoi, Vietnam) and housed in a regulated environment (21 ± 2 °C, 12 h light/dark cycle, light period starting at 7 AM) with free access to food and water. Acetylcholinesterase (AChE) (EC 3.1.1.7), butyrylcholinesterase (BChE) (EC 3.1.1.8) and scopolamine hydrobromide (>98 %) were obtained from Sigma-Aldrich Pte Ltd (Nucleos, Singapore). […] Other chemicals were of the highest grade available.
(§2) The inhibitory activities of the ChEs were measured using a modified Ellman’s method. Acetylthiocholine and butyrylthiocholine were used as substrates to examine the inhibitory effect of sample on the AChE and BChE action, respectively. The reaction mixture contained: 140 μL of sodium phosphate buffer (pH 8.0); 20 μL of tested sample solution; and 20 µL of either AChE or BChE solution (5 units/mL), which were mixed and incubated at room temperature for 15 min. The reactions were initiated by the addition of 10 µL of dithiobisnitrobenzoate (DTNB) and 10 μL of either acetylthiocholine or butyrylthiocholine, respectively. The hydrolysis of AChE or BChE was monitored at 412 nm based on the formation of yellow 5-thio-2-nitrobenzoate anion from the reaction of DTNB with thiocholine, which was released by enzymatic hydrolysis of either AChE or BChE. […] The reaction was performed in triplicate and recorded in 96-well microplates using a microplate reader (VersaMax ELISA, USA). Percent inhibition was calculated from (1–S/E) × 100, where E and S were the enzyme activities […] the tested sample, respectively.

For experiment [2], the target named is T2, Acetylcholinesterase (AChE) (EC 3.1.1.7) (Homo sapiens, UniProt P22303).
T2 construct: purchased Sigma-Aldrich Pte Ltd (Nucleos, Singapore)
T2 sequence (P22303 32-614): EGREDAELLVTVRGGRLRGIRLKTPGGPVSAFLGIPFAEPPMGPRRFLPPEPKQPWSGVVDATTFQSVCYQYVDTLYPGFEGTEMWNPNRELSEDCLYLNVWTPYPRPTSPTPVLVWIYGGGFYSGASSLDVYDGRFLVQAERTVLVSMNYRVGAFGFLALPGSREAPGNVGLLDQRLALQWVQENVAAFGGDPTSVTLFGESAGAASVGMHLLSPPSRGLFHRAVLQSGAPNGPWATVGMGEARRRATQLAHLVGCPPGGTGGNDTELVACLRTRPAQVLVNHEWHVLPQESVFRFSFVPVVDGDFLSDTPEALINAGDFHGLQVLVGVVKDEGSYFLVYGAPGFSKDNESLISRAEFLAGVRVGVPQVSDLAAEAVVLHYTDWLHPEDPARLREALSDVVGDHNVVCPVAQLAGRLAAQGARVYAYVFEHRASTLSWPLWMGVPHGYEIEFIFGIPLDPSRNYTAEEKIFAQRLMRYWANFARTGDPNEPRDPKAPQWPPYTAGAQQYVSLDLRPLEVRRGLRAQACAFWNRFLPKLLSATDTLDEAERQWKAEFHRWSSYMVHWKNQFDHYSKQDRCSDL
The experiment is described as follows: AChE inhibition assay (modified Ellman's method). Type of experiment: biochemical. How it is done: as §1, §2

Experiment [3] has as its system scopolamine-induced memory deficit in mice. The experiment is described as follows: Y-maze test, scopolamine-induced memory impairment. Format: in vivo, male Swiss mice. To be noted: scopolamine 1.5 mg/kg i.p. alone; versus vehicle-treated control group, P < 0.001.
Experiment [4] shares this test system. Nature of the experiment: Object recognition test, scopolamine-induced recognition impairment. Conditions: scopolamine 1.5 mg/kg i.p. alone. Format: in vivo, male Swiss mice.
For experiment [5] the test system is unchanged. Nature of the experiment: Morris water maze test, scopolamine-induced memory dysfunction. Type of experiment: in vivo, male Swiss mice. Conditions: scopolamine 1.5 mg/kg i.p. alone, versus vehicle-treated controls.
Setting [6] is: days 3 to 7, P < 0.01 and P < 0.001.

Where a name gives a salt, the structure may show the parent alone. Read-outs that look alike come from different tables or passages of the source. A value given as a limit tells only on which side of the number the result lay.

T1 sequence (P06276 29-602, species assumed): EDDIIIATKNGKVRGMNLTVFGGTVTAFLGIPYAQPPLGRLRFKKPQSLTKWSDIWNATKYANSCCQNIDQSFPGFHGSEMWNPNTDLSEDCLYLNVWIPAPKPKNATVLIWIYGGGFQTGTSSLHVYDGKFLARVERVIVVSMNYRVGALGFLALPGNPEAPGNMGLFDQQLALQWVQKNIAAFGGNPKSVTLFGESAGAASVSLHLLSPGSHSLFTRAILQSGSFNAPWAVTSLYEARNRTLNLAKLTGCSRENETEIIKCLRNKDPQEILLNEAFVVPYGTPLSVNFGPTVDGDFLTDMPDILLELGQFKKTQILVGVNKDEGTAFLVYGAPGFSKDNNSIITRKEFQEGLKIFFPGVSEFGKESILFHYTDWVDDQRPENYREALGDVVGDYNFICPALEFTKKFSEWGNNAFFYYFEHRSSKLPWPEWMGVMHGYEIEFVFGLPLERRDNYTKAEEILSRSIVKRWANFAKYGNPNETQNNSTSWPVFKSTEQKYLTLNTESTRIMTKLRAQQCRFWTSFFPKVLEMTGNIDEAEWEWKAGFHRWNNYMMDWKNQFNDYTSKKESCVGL

Take `C=C(C)[C@@H]1CC[C@]2(C(=O)O)CC[C@]3(C)C(CCC4[C@@]5(C)CCC(=O)C(C)(C)C5CC[C@]43C)C12` (some centres unmarked) [Compound 8, betulonic acid]: the IC50 in experiment [1] is greater than 100 µM; in experiment [2] (read-out: IC50 AChE, average of 3 replicates ± SD, substrate acetylthiocholine, pH 8.0), 94.6 ± 1.5 µM.

For `COC(=O)/C=C/c1ccc(O)c(OC)c1` [Compound 15, methyl ferulate], in experiment [2], the IC50 was greater than 100 µM.

For `O=C(O)c1ccc(O)c(O)c1` [Compound 17, protocatechuic acid], the IC50 in experiment [2] was greater than 100 µM.

For the compound `C=C(C)[C@@H]1CC[C@]2(CO)CC[C@]3(C)[C@H](CC[C@@H]4[C@@]5(C)CC[C@H](O)C(C)(C)[C@@H]5CC[C@]43C)[C@@H]12` [Compound 4, betulin], the concentration for half-maximal inhibition (IC50) in experiment [2] came to 93.4 ± 2.2 µM.

Consider `COc1cc(/C=C/C(=O)O)ccc1O` [Compound 14, ferulic acid], for which the IC50 in experiment [1] and in experiment [2] was greater than 100 µM throughout.

For `CC1(C)OC(=O)C23CCC1C2CCC1(C)C3CCC2C3(C)CCC(O)C(C)(C)C3CCC21C` (stereo not drawn) [Compound 1, (3β)-hopan-3-ol-28,22-olide], the values for the IC50 in experiment [1] and in experiment [2] were greater than 100 µM and 79.5 ± 1.1 µM, respectively.

Take `COC1=CC(=O)C=C(OC)C1=O` [Compound 13, 2,6-dimethoxyl-p-benzoquinone]: the IC50 in experiment [1] came to 42.7 ± 7.6 µM; in experiment [2] it was 54.4 ± 3.4 µM.

Consider `C=C(C)[C@@H]1CC[C@]2(C)CC[C@]3(C)[C@H](CC[C@@H]4[C@@]5(C)CC[C@H](O)C(C)(C)[C@@H]5CC[C@]43C)[C@@H]12` [Compound 2, lupeol], for which the IC50 is greater than 100 µM in experiment [1] and 75.7 ± 3.1 µM in experiment [2].

Take `CC1(C)CC[C@]23CC[C@]4(C)C(CCC5[C@@]6(C)CC[C@H](OC=O)C(C)(C)C6CC[C@]54C)C2[C@H]1OC3=O` (stereo partly drawn) [Compound 11, 3β-formyloxy-l8α-oleanano-28,19β-lactone]: the results for the IC50 in experiment [1] and in experiment [2] were greater than 100 µM and 86.5 ± 0.6 µM, respectively.

For `COC(=O)c1cc(O)c(O)c(O)c1` [Compound 20, methyl gallate], the half-maximal inhibitory concentration (IC50) in experiment [2] was greater than 100 µM.

With `C=C(C)[C@@H]1CC[C@]2(OO)CC[C@]3(C)C(CCC4[C@@]5(C)CC[C@H](O)C(C)(C)C5CC[C@]43C)C12` (stereo partly drawn) [Compound 5, 28-norlup-20(29)-ene-3β-hydroxy-17β-hydroperoxide], the results for the IC50 in experiment [1] and in experiment [2] were greater than 100 µM and 83.9 ± 0.6 µM, respectively.

Consider `Cc1cc(O)c2c(c1)C(=O)c1cccc(O)c1C2=O` [Compound 12, chrysophanol], for which the IC50 in experiment [1] was greater than 100 µM; in experiment [2], 77.3 ± 0.8 µM.

Consider `COc1cc(C(=O)O)cc(OC)c1O` [Compound 21, syringic acid], for which, in experiment [2], the concentration for half-maximal inhibition (IC50) is greater than 100 µM.

`COc1cc(C(=O)O)ccc1O` [Compound 18, vanillic acid]: the IC50 in experiment [1] and in experiment [2] was greater than 100 µM throughout.

Regarding `COc1cc(C=O)ccc1O` [Compound 19, vanillin], in experiment [2], the 50% inhibitory concentration (IC50) was greater than 100 µM.

`C=C(C)[C@@H]1CC[C@]2(C(=O)O)CC[C@]3(C)[C@H](CC[C@@H]4[C@@]5(C)CC[C@H](O)C(C)(C)[C@@H]5CC[C@]43C)[C@@H]12` [Compound 7, betulinic acid]: it took 62 ± 2.2 µM to reach half-maximal inhibition in experiment [2] (IC50).

With `CN1[C@@H]2C[C@@H](OC(=O)[C@H](CO)c3ccccc3)C[C@H]1[C@@H]1O[C@@H]12` [scopolamine, scopolamine hydrobromide], the “Spontaneous alternation (%) in Y-maze” value in experiment [3] is “significantly lower”. The “Time exploring new versus familiar object, test phase, object recognition test” value in experiment [4] is “no total time difference between familiar and new objects”. The “Time in the target quadrant, probe trial day 8, Morris water maze” value in experiment [5] (P < 0.05) is on record as “significantly reduced”. For the same compound, in experiment [5] (setting [6]), the “Escape latencies, training trials, Morris water maze” value is “longer” and the “Swimming distances, training trials, Morris water maze” value is recorded as “longer”.

`CC1(C)CC[C@]23CC[C@]4(C)C(CCC5[C@@]6(C)CC[C@H](O)C(C)(C)C6CC[C@]54C)C2[C@H]1OC3=O` (stereo partly drawn) [Compound 10, 3β-hydroxy-18α-olean-28,19β-olide]: the IC50 in experiment [2] is greater than 100 µM.

Regarding `C=C(C)[C@@H]1CC[C@]2(O)CC[C@]3(C)C(CCC4[C@@]5(C)CC[C@H](O)C(C)(C)C5CC[C@]43C)C12` (stereo partly drawn) [Compound 3, 28-norlup-20(29)-ene-3β,17β-diol], the IC50 in experiment [1] and in experiment [2] was greater than 100 µM throughout.

On to `COC(=O)C(Cc1ccc(O)cc1)C(=O)OC` [Compound 16, methyl 3-(4-hydroxyphenyl)-2-methoxycarbonylpropionate], for which the IC50 in experiment [1] and in experiment [2] was greater than 100 µM each time.

The record behind these values is PMC4973094, “Anti-cholinesterases and memory improving effects of Vietnamese Xylia xylocarpa” (Chemistry Central Journal, 2016).
